Results published in paper PMC7387440, “EGCG impedes human Tau aggregation and interacts with Tau” (Scientific Reports, 2020).

Target: T1, full-length Tau (human Tau40wt) (Homo sapiens, UniProt P10636)
T1 construct: gene MAPT; full-length recombinant Tau (Tau40wt, 441 residues)
Test: isothermal titration calorimetry ([…] Tau titrated with […] EGCG)
Type: binding

T1 sequence (P10636 1-441 isoform P10636-8): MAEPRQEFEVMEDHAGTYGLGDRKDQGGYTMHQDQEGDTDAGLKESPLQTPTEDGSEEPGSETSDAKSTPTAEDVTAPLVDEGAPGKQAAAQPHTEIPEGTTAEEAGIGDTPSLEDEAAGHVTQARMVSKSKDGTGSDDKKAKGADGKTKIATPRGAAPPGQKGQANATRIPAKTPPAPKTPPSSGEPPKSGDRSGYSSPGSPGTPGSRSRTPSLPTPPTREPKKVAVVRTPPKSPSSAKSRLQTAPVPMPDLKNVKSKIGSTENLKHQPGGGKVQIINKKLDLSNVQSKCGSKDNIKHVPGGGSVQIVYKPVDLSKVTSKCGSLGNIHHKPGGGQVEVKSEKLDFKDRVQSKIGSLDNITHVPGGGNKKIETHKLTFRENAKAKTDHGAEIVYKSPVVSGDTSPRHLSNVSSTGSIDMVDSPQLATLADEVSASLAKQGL

O=C(O[C@@H]1Cc2c(O)cc(O)cc2O[C@@H]1c1cc(O)c(O)c(O)c1)c1cc(O)c(O)c(O)c1 [EGCG]
Kd: 0.074 µM
